We go through 34 molecules from PMC12751012, “Nanoscale Direct-to-Biology Optimization and Structural Insights into Selective S. aureus TrmD Inhibitors” (Journal of Medicinal Chemistry, 2025).

For this assay, the target named is T1, S. aureus TrmD (Staphylococcus aureus, UniProt Q2FZ43).
T1 construct: made in house; host or cells: E. coli BL21
T1 sequence (Q2FZ43 1-245): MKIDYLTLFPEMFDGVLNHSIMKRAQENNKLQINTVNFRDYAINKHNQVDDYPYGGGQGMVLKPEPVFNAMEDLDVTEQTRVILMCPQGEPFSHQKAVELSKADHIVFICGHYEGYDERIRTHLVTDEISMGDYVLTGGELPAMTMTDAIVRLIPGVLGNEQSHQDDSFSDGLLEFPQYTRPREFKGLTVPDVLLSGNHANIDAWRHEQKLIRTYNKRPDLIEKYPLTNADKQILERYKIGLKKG
As to the kind of experiment: nanoSAR direct-to-biology FP displacement screening of crude triazoles. It is filed as binding. The settings on record: crude triazole at 1 μM, assuming full conversion; 500 nM TrmD, 10 nM tracer 4; read-out: % displaced tracer. Summed up:
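Crude CuAAC triazoles from alkyne 7 and 320 diverse azides were screened by FP displacement of 10 nM tracer 4 from 500 nM S. aureus TrmD. Buffer was 40 mM Tris HCl, 100 mM NaCl, 10 mM MgCl2, 5% glycerol, pH 7.5.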

Consider `CS(=O)(=O)NC(=O)Cn1cc(-c2c[nH]c3nc[nH]c(=O)c23)nn1` [Compound 01G12, S(=O)(=O)(NC(=O)CN1N=NC(C=2C=3C(=O)NC=NC3NC2)=C1)C], for which the inhibition at 1 µM amounted to 27%.

Regarding `O=C(c1ncon1)n1cc(-c2c[nH]c3nc[nH]c(=O)c23)nn1` [Compound 02E12, O=C(N1N=NC(C=2C=3C(=O)NC=NC3NC2)=C1)C4=NOC=N4], the inhibition at 1 µM amounted to 1.83%. To `COc1ccc(C(F)(F)F)cc1-n1cc(-c2c[nH]c3nc[nH]c(=O)c23)nn1` [Compound 02A04, FC(F)(F)c1cc(N2N=NC(C=3C=4C(=O)NC=NC4NC3)=C2)c(OC)cc1] belongs 20%; to `CCNC(=O)Cn1cc(-c2c[nH]c3nc[nH]c(=O)c23)nn1` [Compound 01E09, O=C1NC=NC=2NC=C(C=3N=NN(C3)CC(=O)NCC)C12], 33%; to `O=c1[nH]cnc2[nH]cc(-c3cn([C@@H]4C[C@H]5CCC[C@@H](C4)N5)nn3)c12` [Compound 01A08, O=C1NC=NC=2NC=C(C=3N=NN(C3)[C@@H]4C[C@@H]5[NH2+][C@H](C4)CCC5)C12], 38%. Turning to `O=c1[nH]cnc2[nH]cc(-c3cn(C[C@@H]4COCCO4)nn3)c12` [Compound 03A10, O=C1NC=NC=2NC=C(C=3N=NN(C3)C[C@H]4OCCOC4)C12], the inhibition at 1 µM was 57%. With `CS(=O)(=O)c1cc(Cn2cc(-c3c[nH]c4nc[nH]c(=O)c34)nn2)cc(C(F)(F)F)c1` [Compound 03A01, S(=O)(=O)(c1cc(cc(c1)CN2N=NC(C=3C=4C(=O)NC=NC4NC3)=C2)C(F)(F)F)C], the inhibition at 1 µM is 63%. Regarding `CN(C)CCn1cc(-c2c[nH]c3nc[nH]c(=O)c23)nn1` [Compound 03A02, O=C1NC=NC=2NC=C(C=3N=NN(C3)CC[NH+](C)C)C12], the inhibition at 1 µM was 44%.

In the case of `CC[C@H](c1ccccn1)n1cc(-c2c[nH]c3nc[nH]c(=O)c23)nn1` [Compound 04A02, O=C1NC=NC=2NC=C(C=3N=NN(C3)[C@@H](c4ncccc4)CC)C12], the inhibition at 1 µM amounted to 15%. Under `O=c1[nH]cnc2[nH]cc(-c3cn(C4(C(F)F)CC4)nn3)c12` [Compound 02A12, FC(F)C1(N2N=NC(C=3C=4C(=O)NC=NC4NC3)=C2)CC1] stands 18%.

Turning to `COC(=O)c1coc(Cn2cc(-c3c[nH]c4nc[nH]c(=O)c34)nn2)n1` [Compound 03C08, O=C(OC)C=1N=C(OC1)CN2N=NC(C=3C=4C(=O)NC=NC4NC3)=C2], the inhibition at 1 µM came to 40%. Under `O=c1[nH]cnc2[nH]cc(-c3cn(-c4ccc5c(c4)CCO5)nn3)c12` [Compound 01B03, O=C1NC=NC=2NC=C(C=3N=NN(c4cc5c(OCC5)cc4)C3)C12] stands 52%; under `Cc1ccc([C@@H](O)[C@H](C)n2cc(-c3c[nH]c4nc[nH]c(=O)c34)nn2)cc1` [Compound 01D10, O=C1NC=NC=2NC=C(C=3N=NN(C3)[C@H]([C@H](O)c4ccc(cc4)C)C)C12], 49%; under `O=c1[nH]cnc2[nH]cc(-c3cn([C@@H]4CCOC5(CCNCC5)C4)nn3)c12` [Compound 01B07, O=C1NC=NC=2NC=C(C=3N=NN(C3)[C@H]4CC5(OCC4)CC[NH2+]CC5)C12], 34%. To `O=c1[nH]cnc2[nH]cc(-c3cn(S(=O)(=O)c4ccc5c(c4)CCO5)nn3)c12` [Compound 02A06, O=S(C1=CC2=C(OCC2)C=C1)(N3N=NC(C4=CNC(N=CN5)=C4C5=O)=C3)=O] belongs -1.83%; to `Cc1cncc(CCn2cc(-c3c[nH]c4nc[nH]c(=O)c34)nn2)n1` [Compound 04C01, O=C1NC=NC=2NC=C(C=3N=NN(C3)CCc4nc(cnc4)C)C12], 69%; to `O=c1[nH]cnc2[nH]cc(-c3cn(CCCN4CCOCC4)nn3)c12` [Compound 03E09, O=C1NC=NC=2NC=C(C=3N=NN(C3)CCC[NH+]4CCOCC4)C12], 66%. Under `O=c1[nH]cnc2[nH]cc(-c3cn(CCF)nn3)c12` [Compound 01C05, FCCN1N=NC(C=2C=3C(=O)NC=NC3NC2)=C1] stands 22%; under `O=C(c1ccco1)n1cc(-c2c[nH]c3nc[nH]c(=O)c23)nn1` [Compound 01G07, O=C(N1N=NC(C=2C=3C(=O)NC=NC3NC2)=C1)C=4OC=CC4], 28%; under `O=c1[nH]cnc2[nH]cc(-c3cn(C4CC4)nn3)c12` [Compound 01B05, O=C1NC=NC=2NC=C(C=3N=NN(C3)C4CC4)C12], 12%. On to `O=c1[nH]cnc2[nH]cc(-c3cn(CCCN4CCCC4)nn3)c12` [Compound 03H05, O=C1NC=NC=2NC=C(C=3N=NN(C3)CCC[NH+]4CCCC4)C12], for which the inhibition at 1 µM is 40%.

Take `CCOC(=O)C12CC(Cn3cc(-c4c[nH]c5nc[nH]c(=O)c45)nn3)(C1)OC21CCOCC1` [Compound 03D04, O=C(OCC)C12C3(OC(CN4N=NC(C=5C=6C(=O)NC=NC6NC5)=C4)(C1)C2)CCOCC3]: the inhibition at 1 µM is 51%.

Take `Cc1csc(C[C@H](C)n2cc(-c3c[nH]c4nc[nH]c(=O)c34)nn2)n1` [Compound 01E11, S1C(=NC(=C1)C)C[C@@H](N2N=NC(C=3C=4C(=O)NC=NC4NC3)=C2)C]: the inhibition at 1 µM amounted to 31%. Turning to `O=C1CCC[C@@H](Cn2cc(-c3c[nH]c4nc[nH]c(=O)c34)nn2)N1` [Compound 04D01, O=C1NC=NC=2NC=C(C=3N=NN(C3)C[C@H]4NC(=O)CCC4)C12], the inhibition at 1 µM turned out to be 75%.

`O=c1[nH]cnc2[nH]cc(-c3cn(C[C@@H]4C[C@@H]4C(F)(F)F)nn3)c12` [Compound 03E06, FC(F)(F)[C@@H]1[C@H](CN2N=NC(C=3C=4C(=O)NC=NC4NC3)=C2)C1]: the inhibition at 1 µM came to 34%. On to `CCNCCn1cc(-c2c[nH]c3nc[nH]c(=O)c23)nn1` [Compound 03E05, O=C1NC=NC=2NC=C(C=3N=NN(C3)CC[NH2+]CC)C12], for which the inhibition at 1 µM came to 87%.

As to `Cc1nc2cc(-n3cc(-c4c[nH]c5nc[nH]c(=O)c45)nn3)ccc2[nH]1` [Compound 03G03, O=C1NC=NC=2NC=C(C=3N=NN(c4cc5N=C(Nc5cc4)C)C3)C12], the inhibition at 1 µM was determined as 21%. Under `O=c1[nH]cnc2[nH]cc(-c3cn(Cc4ccc(Cl)s4)nn3)c12` [Compound 04C02, ClC=1SC(=CC1)CN2N=NC(C=3C=4C(=O)NC=NC4NC3)=C2] stands 92%; under `COc1cccc(C2(n3cc(-c4c[nH]c5nc[nH]c(=O)c45)nn3)CCC2)c1` [Compound 01A12, O=C1NC=NC=2NC=C(C=3N=NN(C3)C4(c5cc(OC)ccc5)CCC4)C12], 10%. To `C[C@H](c1ccccc1Cl)n1cc(-c2c[nH]c3nc[nH]c(=O)c23)nn1` [Compound 02H09, Clc1c(cccc1)[C@H](N2N=NC(C=3C=4C(=O)NC=NC4NC3)=C2)C] belongs 44%; to `NCc1cccc(-n2cc(-c3c[nH]c4nc[nH]c(=O)c34)nn2)c1` [Compound 03G11, O=C1NC=NC=2NC=C(C=3N=NN(c4cc(ccc4)C[NH3+])C3)C12], 32%.

With `COCCn1cc(-c2c[nH]c3nc[nH]c(=O)c23)nn1` [Compound 03C11, O=C1NC=NC=2NC=C(C=3N=NN(C3)CCOC)C12], the inhibition at 1 µM is 29%. Under `NS(=O)(=O)c1ccccc1-n1cc(-c2c[nH]c3nc[nH]c(=O)c23)nn1` [Compound 01G01, S(=O)(=O)(N)c1c(N2N=NC(C=3C=4C(=O)NC=NC4NC3)=C2)cccc1] stands 42%. Under `O=c1[nH]cnc2[nH]cc(-c3cn(CC4CCCC4)nn3)c12` [Compound 03E11, O=C1NC=NC=2NC=C(C=3N=NN(C3)CC4CCCC4)C12] stands 39%.
